Test results taken from patent US20030086911A1, “Methods and compositions for the stimulation of human immunodeficiency virus-specific cytotoxic T lymphocytes employing autologous antigen-peripheral blood mononuclear cells” (Department of Health and Human Services, priority 1993, published 2003).

Experiments:
[1] = system: BALB/c 3T3 neo-only transfectants (18neo); test: 51Cr-release CTL assay with T1272-specific effectors on peptide-sensitized fibroblast targets; format: cell-based, BALB/c mice; conditions: for % specific 51Cr release, Immune spleen cells: 0.1 μM peptide on 18neo targets, effectors spleen cells of 10 μM T1272 peptide-pulsed spleen cell-immunized BALB/c mice restimulated with 0.1 μM T1272; for % specific 51Cr release, Immune spleen cells / % specific 51Cr release, CTL line: E/T 40:1; for % specific 51Cr release, CTL line: 1.0 μM peptide on 18neo targets, short-term T1272-specific BALB/c CTL line (3 weeks in culture); for peptide concentration able to sensitize targets for lysis: titrated in the killing assay, T1272 peptide-immune splenic CTL at 40:1 (FIG. 1C)
Procedure: CTL generation: BALB/c (H-2^d) mice were immunized intravenously with 20×10^6 spleen cells pulsed with various concentrations of T1272 peptide for two hours at 37° C. and irradiated at 2,000 rad (by the method of H. Takahashi, Y. Nakagawa, K. Yokomuro, & J. A. Berzofsky, submitted). One week later, immune spleen cells (3×10^6/ml) were restimulated for six days in vitro with various concentrations of T1272 peptide in 10% Rat-T Stim, without Con A (Collaboration Research Incorporated, Bedford, Mass.) in 24-well culture plates in complete T-cell medium (CTM)(14), a 1:1 mixture of RPMI 1640 and Eagle-Hanks amino acid medium containing 10% fetal bovine serum, 2 mM L-glutamine, penicillin (100 U/ ml), streptomycin (100 μg/ml), and 5×10^−5 M 2 mercaptoethanol.
CTL Assay. Cytolytic activity of the restimulated cells was measured as described (15) by using a six-hour assay with various ^51Cr-labeled targets. For testing the peptide specificity of CTL, effectors and ^51CR-labeled targets were mixed with various concentrations of peptide at the beginning of the assay. The percentage specific ^51CR release was calculated as 100(experimental release−spontaneous release)/(maximum release−spontaneous release). Maximum release was determined from supernatants of cells that were lysed by addition of 5% Triton X-100. Spontaneous release was determined from target cells incubated without added effector cells.
To more precisely identify the T-cell epitope recognized by T1272-specific BALB/c CTL, and to test the hypothesis that the response was specific for the neo-antigenic determinant created by the mutation, a series of peptides was synthesized and various concentrations of these peptides were individually added to effectors and ^51Cr-labeled fibroblast targets at the start of the assay culture. We measured the cytotoxic activity of two types of effector cells: spleen cells from mice immunized with peptide-pulsed cells stimulated once in vitro with 0.1 μM T1272 peptide (presumably polyclonal·effector populations), and a short-term CTL line (possibly an oligoclonal population, although only three weeks in culture).
CTL effectos were spleen cells derived from die 10 μM T1272 peptide-pulsed spleen cell-immunized BALB/c mice (restimulated 6 days with 0.1 μM T1272 peptide) (left) or a short-term T1272-specific BALB/c CTL line (after 3 weeks in culture) (right). BALB/c 3T3 neo-only transfectants (18neo) (H-2^d) plus 0.1 μM synthetic peptide were used as targets with BALB/c spleen effectors or with 1.0 μM peptide for the CTL line. […] The effector/target cell ratio was 40:1. The arrow and bold-face amino acids indicate the site of the 135 Cys to Tyr mutation. Underlined amino acids correspond to human p53 residues which differ from the mouse p53.

[2] = system: L-cell (H-2^k) transfectants expressing D^d, L^d and K^d; test: MHC-restriction mapping of T1272 peptide recognition by CTL; format: cell-based, mouse; conditions: 0.1 μM peptide T1272, K^d L-cell transfectants (FIG. 2B)
Procedure: MHC-restriction mapping. L-cell (H-2^k) transfectants expressing D^d (T4.8.3 (18), L^d (T1.1.1 (19) and K^d (B4III-2(20)) were used as targets, in the presence or absence of 0.1 μM peptide T1272. neo gene transfected BALB/c 3T3 fibroblasts (18neo) (H-2^d) (21) were used as a positive control, and neo gene-transfected L-cells L28 (H-2^k) (21) were used as a negative target control, also in the presence or absence of peptide.
The BALB/c 3T3 (18neo) fibroblasts (H-2^d) used as targets in these experiments express class I but not class II MHC gene products.
In this experiment, 2×10^3 51Cr-labeled targets were cultured with T1272-immune splenic effector cells (a short-term line stimulated twice with 0.1 μM peptide) at several effector/target cell ratios in the presence or absence of 0.1 μM peptide T1272. L-cell (H-2^k) transfectants expressing D^d (T4.8.3 (18)), L^d (T1.1.1 (19)) and K^d (B4III-2 (20)) were used as targets. neo gene transfected BALB/c 3T3 fibroblasts (isneo) (H-2^d) (21) were used as a positive control, and neo gene-transfected L-cells L28 (H-2^k) (21) were used as a negative target control. Spontaneous release was less than 20% of maximal release. Although background without peptide varied among the different transfectants from experiment to experiment, T1272 peptide-specific lysis was consistently seen only in the cells expressing K^d, in five different experiments. […]

[3] = system: HIV-1-IIIB gp160-gene transfected BALB/c.3T3 fibroblasts; test: CTL induced by i.v. immunization with peptide-pulsed irradiated cells, 51Cr release on gp160 transfectants; format: in vivo, BALB/c mice; conditions: cells pulsed with the 10-mer before immunization; without adding IL-2 exogenously (FIG. 9)
Procedure: CTL Generation. Immunizations were carried out either subcutaneously (s.c.) in the base of the tail, or intraperitoneally (i.p.), or intravenously (i.v.) from the tail vein with 27 G needle. Several weeks later, immune spleen cells (5×10^6/ml in 24-well culture plates in complete T-cell medium (a 1:1 mixture of RPMI 1640 and EHAA medium containing 10% FCS, 2 mM L-glutamine, 100 U/ml penicillin, 100 μg/ml streptomycin and 5×10^−5M 2-mercaptoethanol)) were restimulated for 6 days in vitro with mitomycin-C treated HIV-1-IIIB envelope gp160 gene transfected histocompatible BALB/c.3T3 fibroblasts alone or in the presence of 10% Rat Con-A supernatant-containing medium (Rat T-cell Monoclone) (Collaborative Research, Inc., Bedford, Mass.) or 10 U/ml of recombinant mouse IL-2 (rIL-2) (Genzyme, Boston, Mass.).
CTL assay. After culture for 6 days, cytolytic activity of the restimulated cells was measured as previously described (21) using a 6 hr assay with various ^51Cr-labelled targets, as indicated in the figure legends. […] The percent specific ^51Cr release was calculated as 100 (experimental release−spontaneous release)/(maximum release−spontaneous release). Maximum release was determined from supernatants of cells that were lysed by addition of 5% Triton-X 100. Spontaneous release was determined from target cells incubated without added effector cells. […]

KMFYQLAKTCPVQL [Peptide L14, C-terminal 14 residues of the T1272 peptide]
% specific 51Cr release, Immune spleen cells [1]: 22.2% | % specific 51Cr release, CTL line [1]: 22.1%

TYSPALNKMFYQL [Peptide L13]
% specific 51Cr release, Immune spleen cells [1]: 14.7% | % specific 51Cr release, CTL line [1]: −8.9%

TYSPALNKMFYQLAKTCPVQL [Peptide T1272]
% specific 51Cr release, Immune spleen cells [1]: 35.4% | % specific 51Cr release, CTL line [1]: 24.7% | peptide concentration able to sensitize targets for lysis [1]: < 0.1 µM | class I MHC restriction of peptide recognition by CTL [2]: restricted by the class I molecule K^d

FYQLAKTCPV [Peptide V10]
% specific 51Cr release, Immune spleen cells [1]: 62.7% | % specific 51Cr release, CTL line [1]: 53.7%

RGPGRAFVTI [Peptide 18IIIB-I-10]
priming of CD8+ CTL by minimal peptide [3]: can prime CD8^+ CTL almost as well as 18IIIB

RIQRGPGRAFVTIGK [Peptide P18IIIB]
peptide concentration able to sensitize targets for lysis [1]: not recognized at any concentration

ALNKMFYQLAKT [Peptide T12]
% specific 51Cr release, Immune spleen cells [1]: 9.7% | % specific 51Cr release, CTL line [1]: −9.1%
